Consider one compound from ChEMBL document CHEMBL1150891, “Isolation of 1-carboxymethylnicotinic acid from the marine sponge anthosigmella cf. raromicrosclera As a cysteine protease inhibitor1” (J Nat Prod, 1998).

The assay addresses T1, Papain (Carica papaya, UniProt P00784).
T1 sequence (P00784 whole entry): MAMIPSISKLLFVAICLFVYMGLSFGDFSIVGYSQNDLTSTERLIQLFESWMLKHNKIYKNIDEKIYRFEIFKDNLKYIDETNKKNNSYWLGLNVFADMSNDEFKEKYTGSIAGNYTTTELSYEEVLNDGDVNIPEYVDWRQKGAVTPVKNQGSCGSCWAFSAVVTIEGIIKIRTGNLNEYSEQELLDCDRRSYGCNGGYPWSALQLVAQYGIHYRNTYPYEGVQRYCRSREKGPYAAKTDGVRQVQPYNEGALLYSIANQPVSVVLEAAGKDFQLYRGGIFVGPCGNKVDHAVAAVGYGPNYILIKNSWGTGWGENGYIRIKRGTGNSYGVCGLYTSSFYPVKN
Briefly: Inhibition of Carica papaya papain.

pIC50: −log10 of the molar value.

In the case of `O=C([O-])C[n+]1cccc(C(=O)O)c1`, the negative logarithm of the IC50 (pIC50) was 3.35.

Usually pIC50 stands for −log10 of the IC50, conventionally taken in molar units. A high value points to a small IC50.
